For 20 molecules, Emax and DC50 results are on record in US11554171B2, “Compounds and methods for the targeted degradation of bromodomain-containing proteins” (Arvinas Operations, Inc., priority 2015, dated 2023).

For this test, the system named is c-myc in 22RV-1 cells. In words: Human c-myc ELISA assay. The format is cell-based. Particulars: Homo sapiens; for Emax: 22Rv1, 18 h, read-out: Degradation of BRD4: Maximum inhibition (%) c-Myc ELISA in 22RV1 cells; for DC50: 22Rv1, read-out: Degradation of BRD4: DC50 (uM) c-Myc ELISA in 22RV1 cells. The essentials: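 22RV-1 cells treated 18 h with 8-point 1:3 compound dilutions (final top 300 nM or 1 μM, 0.1% DMSO). Cells lysed in RIPA buffer with protease/phosphatase inhibitors, and c-myc protein in cleared lysate quantified by ELISA against a standard curve. DC50 reported for c-myc suppression.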
On the technique in general: An ELISA detects its analyte on a solid surface through an enzyme-linked reagent.

Consider `Cc1ncsc1-c1ccc(CNC(=O)[C@@H]2C[C@@H](O)CN2C(=O)[C@@H](NC(=O)COCCCOCCCOc2ccc(NC(=O)C[C@@H]3N=C(c4ccccc4)c4c(sc(C)c4C)-n4c(C)nnc43)cc2)C(C)(C)C)cc1` [Example 55, (2S,4R)-1-[(2S)-3,3-dimethyl-2-(2-{3-[3-(4-{2-[(9S)-4,5,13-trimethyl-7-phenyl-3-thia-1,8,11,12-tetraazatricyclo[8.3.0.0^2,^6]trideca-2(6),4,7,10,12-pentaen-9-yl]acetamido}phenoxy)propoxy]propoxy}acetamido)butanoyl]-4-hydroxy-N-{[4-(4-methyl-1,3-thiazol-5-yl)phenyl]methyl}pyrrolidine-2-carboxamide], for which the Emax is 100% and the 50% degradation concentration (DC50) is less than 0.01 µM.
For `Cc1ncsc1-c1ccc([C@H](C)NC(=O)[C@@H]2C[C@@H](O)CN2C(=O)[C@@H](NC(=O)CCc2cc(F)cc(O[C@H]3C[C@@H](NC(=O)C[C@@H]4N=C(c5ccc(Cl)cc5)c5c(sc(C)c5C)-n5c(C)nnc54)C3)c2)C(C)(C)C)cc1` [Example 183, (2S,4R)-1-[(2S)-2-(3-{3-fluoro-5-[(1,3-cis)-3-{2-[(9S)-7-(4-chlorophenyl)-4,5,13-trimethyl-3-thia-1,8,11,12-tetraazatricyclo[8.3.0.0^2,^6]trideca-2(6),4,7,10,12-pentaen-9-yl]acetamido}cyclobutoxy]phenyl}propanamido)-3,3-dimethylbutanoyl]-4-hydroxy-N-[(1S)-1-[4-(4-methyl-1,3-thiazol-5-yl)phenyl]ethyl]pyrrolidine-2-carboxamide], the Emax was 99% and the half-maximal degradation concentration (DC50) is less than 0.01 µM.
For `Cc1ncsc1-c1ccc(CNC(=O)[C@@H]2C[C@@H](O)CN2C(=O)[C@@H](NC(=O)COCCCOCCCCOc2ccc3c(c2)c2c(C(N)=O)cc(-c4c(C)noc4C)cc2n3Cc2ccccc2)C(C)(C)C)cc1` [Example 117, 9-benzyl-2-(dimethyl-1,2-oxazol-4-yl)-6-{4-[3-({[(2S)-1-[(2S,4R)-4-hydroxy-2-({[4-(4-methyl-1,3-thiazol-5-yl)phenyl]methyl}carbamoyl)pyrrolidin-1-yl]-3,3-dimethyl-1-oxobutan-2-yl]carbamoyl}methoxy)propoxy]butoxy}-9H-carbazole-4-carboxamide], the Emax came to 100% and the DC50 is less than 0.01 µM.
The like results for `Cc1ncsc1-c1ccc([C@H](C)NC(=O)[C@@H]2C[C@@H](O)CN2C(=O)[C@@H](NC(=O)COc2ccnc(N3CCN(C(=O)C[C@@H]4N=C(c5ccc(Cl)cc5)c5c(sc(C)c5C)-n5c(C)nnc54)CC3)n2)C(C)(C)C)cc1` [Example 330] were, in that order, 89% and 0.01 to 0.1 µM.
With `Cc1ncsc1-c1ccc(CNC(=O)[C@@H]2C[C@@H](O)CN2C(=O)[C@@H](NC(=O)COCCOCCOCCNC(=O)C[C@@H]2N=C(c3ccc(Cl)cc3)c3c(sc(C)c3C)-n3c(C)nnc32)C(C)(C)C)cc1` [Example 42, (2S,4R)-1-[(2S)-2-(2-{2-[2-(2-{2-[(9S)-7-(4-chlorophenyl)-4,5,13-trimethyl-3-thia-1,8,11,12-tetraazatricyclo[8.3.0.0^2,^6]trideca-2(6),4,7,10,12-pentaen-9-yl]acetamido}ethoxy)ethoxy]ethoxy}acetamido)-3,3-dimethylbutanoyl]-4-hydroxy-N-{[4-(4-methyl-1,3-thiazol-5-yl)phenyl]methyl}pyrrolidine-2-carboxamide], the Emax stood at 98.6% and the DC50 lay in the range of 0.01 to 0.1 µM.
The matching figures for `Cc1ncsc1-c1ccc([C@H](C)NC(=O)[C@@H]2C[C@@H](O)CN2C(=O)[C@@H](NC(=O)c2cc3ccc(O[C@H](C)CNC(=O)C[C@@H]4N=C(c5ccc(Cl)cc5)c5c(sc(C)c5C)-n5c(C)nnc54)cc3o2)C(C)(C)C)cc1` [Example 211, (2S,4R)-1-[(2S)-2-[(6-{[(2R)-1-{2-[(9S)-7-(4-chlorophenyl)-4,5,13-trimethyl-3-thia-1,8,11,12-tetraazatricyclo[8.3.0.0^2,^6]trideca-2(6),4,7,10,12-pentaen-9-yl]acetamido}propan-2-yl]oxy}-1-benzofuran-2-yl)formamido]-3,3-dimethylbutanoyl]-4-hydroxy-N-[(1S)-1-[4-(4-methyl-1,3-thiazol-5-yl)phenyl]ethyl]pyrrolidine-2-carboxamide]: 99% and less than 0.01 µM.
The matching figures for `Cc1ncsc1-c1ccc(CNC(=O)[C@@H]2C[C@@H](O)CN2C(=O)[C@@H](C(C)C)n2cc(-c3cccc(O[C@@H](C)CNC(=O)C[C@@H]4N=C(c5ccc(Cl)cc5)c5c(sc(C)c5C)-n5c(C)nnc54)c3)cn2)cc1` [Example 198]: 16% and greater than 1 µM.
The like results for `Cc1ncsc1-c1ccc([C@H](C)NC(=O)[C@@H]2C[C@@H](O)CN2C(=O)[C@@H](NC(=O)Cc2ccc(O[C@H]3C[C@@H](NC(=O)C[C@@H]4N=C(c5ccc(Cl)cc5)c5c(sc(C)c5C)-n5c(C)nnc54)C3)nc2)C(C)(C)C)cc1` [Example 270, (2S,4R)-1-[(2S)-3,3-dimethyl-2-(2-{6-[(1,3cis)-3-{2-[(9S)-7-(4-chlorophenyl)-4,5,13-trimethyl-3-thia-1,8,11,12-tetraazatricyclo[8.3.0.0^2,^6]trideca-2(6),4,7,10,12-pentaen-9-yl]acetamido}cyclobutoxy]pyridin-3-yl}acetamido)butanoyl]-4-hydroxy-N-[(1S)-1-[4-(4-methyl-1,3-thiazol-5-yl)phenyl]ethyl]pyrrolidine-2-carboxamide] were, in that order, 92.2% and less than 0.01 µM.
As to `Cc1ncsc1-c1ccc([C@H](C)NC(=O)[C@@H]2C[C@@H](O)CN2C(=O)[C@H](C(C)C)n2cc(-c3ccnc(O[C@H]4C[C@@H](NC(=O)C[C@@H]5N=C(c6ccc(Cl)cc6)c6c(sc(C)c6C)-n6c(C)nnc65)C4)n3)cn2)cc1` [Example 301], the Emax was 95% and the DC50 lay in the range of 0.01 to 0.1 µM.
The like results for `Cc1ncsc1-c1ccc(CNC(=O)[C@@H]2C[C@@H](O)CN2C(=O)[C@H](C(C)C)N2Cc3ccccc3C2=O)c(OCCOCCOCCOCCOCCOCCNC(=O)C[C@@H]2N=C(c3ccc(Cl)cc3)c3c(sc(C)c3C)-n3c(C)nnc32)c1` [Example 3] were, in that order, 100% and 0.1 to 1 µM.
The like results for `Cc1ncsc1-c1ccc(CNC(=O)[C@@H]2C[C@@H](O)CN2C(=O)[C@@H](NC(=O)COCCCOc2ccc(-c3cnc(NC(=O)C[C@@H]4N=C(c5ccc(Cl)cc5)c5c(sc(C)c5C)-n5c(C)nnc54)cn3)cc2F)C(C)(C)C)cc1` [Example 22] were, in that order, 94% and 0.01 to 0.1 µM.
Turning to `Cc1ncsc1-c1ccc([C@H](C)NC(=O)[C@@H]2C[C@@H](O)CN2C(=O)[C@H](C(C)C)n2cc(-c3ccnc(N4CC[C@@H](NC(=O)C[C@@H]5N=C(c6ccc(Cl)cc6)c6c(sc(C)c6C)-n6c(C)nnc65)C4)c3)cn2)cc1` [Example 266], the Emax was determined as 97% and the 50% degradation concentration (DC50) was less than 0.01 µM.
In the case of `Cc1ncsc1-c1ccc(CNC(=O)[C@@H]2C[C@@H](O)CN2C(=O)[C@@H](NC(=O)COCCCCCOc2cccc(NC(=O)C[C@@H]3N=C(c4ccc(Cl)cc4)c4c(sc(C)c4C)-n4c(C)nnc43)c2)C(C)(C)C)cc1` [Example 125], the Emax worked out at 99.5% and the half-maximal degradation concentration (DC50) is less than 0.01 µM.
Turning to `Cc1ncsc1-c1ccc([C@H](C)NC(=O)[C@@H]2C[C@@H](O)CN2C(=O)[C@@H](NC(=O)CN2CCC(N3CCN(C(=O)C[C@@H]4N=C(c5ccc(Cl)cc5)c5c(sc(C)c5C)-n5c(C)nnc54)CC3)CC2)C(C)(C)C)cc1` [Example 335], the Emax was determined as 97% and the DC50 is less than 0.01 µM.
The like results for `Cc1sc2c(c1C)C(c1ccc(Cl)cc1)=NC(CC(=O)N[C@H]1C[C@H](Oc3ccc(CC(=O)N[C@H](C(=O)N4C[C@H](O)C[C@H]4C(=O)N[C@@H](C)c4ccc(C#N)cc4)C(C)(C)C)cc3)C1)c1nnc(C)n1-2` (stereo partly shown) [Example 279] were, in that order, 65.4% and 0.1 to 1 µM.
With `Cc1ncsc1-c1ccc(CNC(=O)[C@@H]2C[C@@H](O)CN2C(=O)[C@@H](NC(=O)COCCCCOc2cccc(NC(=O)C[C@@H]3N=C(c4ccc(Cl)cc4)c4c(sc(C)c4C)-n4c(C)nnc43)c2)C(C)(C)C)cc1` [Example 126], the Emax came to 99% and the DC50 is less than 0.01 µM.
The like results for `Cc1ncsc1-c1ccc([C@H](C)NC(=O)[C@@H]2C[C@@H](O)CN2C(=O)[C@H](n2cc(-c3ccnc(O[C@H]4C[C@H](NC(=O)C[C@@H]5N=C(c6ccc(Cl)cc6)c6c(sc(C)c6C)-n6c(C)nnc65)C4)c3)cn2)C(C)(C)C)cc1` [Example 233] were, in that order, 26% and greater than 1 µM.
For the molecule `Cc1ncsc1-c1ccc(CNC(=O)[C@@H]2C[C@@H](O)CN2C(=O)[C@@H](NC(=O)CCc2ccc(OCCNC(=O)C[C@@H]3N=C(c4ccc(Cl)cc4)c4c(sc(C)c4C)-n4c(C)nnc43)nc2)C(C)(C)C)cc1` [Example 139, (2S,4R)-1-[(2S)-2-{3-[6-(2-{2-[(9S)-7-(4-chlorophenyl)-4,5,13-trimethyl-3-thia-1,8,11,12-tetraazatricyclo[8.3.0.0^2,^6]trideca-2(6),4,7,10,12-pentaen-n-9-yl]acetamido}ethoxy)pyridin-3-yl]propanamido}-3,3-dimethylbutanoyl]-4-hydroxy-N-{[4-(4-methyl-1,3-thiazol-5-yl)phenyl]methyl}pyrrolidine-2-carboxamide], the Emax turned out to be 98% and the half-maximal degradation concentration (DC50) was less than 0.01 µM.
Regarding `Cc1sc2c(c1C)C(c1ccc(Cl)cc1)=N[C@@H](CC(=O)NCCOCCCOCC(=O)N[C@H](C(=O)N1C[C@H](O)C[C@H]1C(=O)NCc1ccc(Cl)cc1)C(C)(C)C)c1nnc(C)n1-2` [Example 76], the Emax came out at 58.6% and the half-maximal degradation concentration (DC50) lay within 0.1 to 1 µM.
For the molecule `Cc1sc2c(c1C)C(c1ccc(Cl)cc1)=N[C@@H](CC(=O)N[C@H]1C[C@@H](Oc3ccc(OCC(=O)N[C@H](C(=O)N4C[C@H](O)C[C@H]4C(=O)N[C@@H](C)c4ccc(-n5ccnc5C)cc4)C(C)(C)C)cn3)C1)c1nnc(C)n1-2` [Example 259], the Emax stood at 65.7% and the 50% degradation concentration (DC50) lay in the range of 0.1 to 1 µM.

As a reminder, the DC50 is the concentration giving 50% degradation.
